Tests used:
green foxtail [1] = test: Test C preemergence; assay type: in vivo, Setaria viridis; conditions: for Foxtail, Green plant response rating: preemergence; for Plant response rating, Foxtail, Green: Preemergence
Procedure, shortened: (§1)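 Visual injury score, 0–100 (100 = complete control), taken 10 days after treatment relative to untreated controls. Pre: directed spray onto soil over sown seeds. Post: foliar spray at one- to two-leaf stage, 2–10 cm. Solvent/surfactant formulation; loam–sand soil; greenhouse.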

green foxtail [2] = test: Test C postemergence; assay type: in vivo, Setaria viridis; conditions: 10 days
Procedure, shortened: as §1

oat, wild [3] = test: Test C preemergence; assay type: in vivo, Avena fatua; conditions: for Oat, Wild plant response rating: preemergence; for Plant response rating, Oat, Wild: Preemergence
Procedure, shortened: as §1

ragweed [4] = test: Test C postemergence; assay type: in vivo, Ambrosia artemisiifolia; conditions: 10 days
Procedure, shortened: as §1

barnyardgrass [5] = test: Test D flooded paddy test; assay type: in vivo, Echinochloa crus-galli; conditions: 250 g ai/ha, applied to paddy water, visual rating after 13 to 14 days, scale 0 to 100 (0 no effect, 100 complete control)
Procedure, shortened: (§2)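 Plants at the 2-leaf stage were grown in pots flooded to 3 cm, and compound was applied directly into the paddy water, with depth kept throughout. After 13–14 days in a greenhouse, injury was rated visually against untreated controls on a 0–100 scale (100 = complete control); a dash means not tested.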

barnyardgrass [6] = test: Test C preemergence; assay type: in vivo, Echinochloa crusgalli; conditions: for Barnyardgrass plant response rating: preemergence; for Plant response rating, Barnyardgrass: Preemergence
Procedure, shortened: as §1

galium = test: Test C postemergence; assay type: in vivo, Galium aparine; conditions: 10 days
Procedure, shortened: as §1

barnyardgrass [7] = test: Test C postemergence; assay type: in vivo, Echinochloa crusgalli; conditions: 10 days
Procedure, shortened: as §1

corn [8] = test: Test C preemergence; assay type: in vivo, Zea mays; conditions: for Corn plant response rating: preemergence; for Plant response rating, Corn: Preemergence
Procedure, shortened: as §1

ryegrass, Italian [9] = test: Test C preemergence; assay type: in vivo, Lolium multiflorum; conditions: for Ryegrass, Italian plant response rating: preemergence; for Plant response rating, Ryegrass, Italian: Preemergence
Procedure, shortened: as §1

horseweed = test: Test C postemergence; assay type: in vivo, Erigeron canadensis; conditions: 10 days
Procedure, shortened: as §1

blackgrass [10] = test: Test C preemergence; assay type: in vivo, Alopecurus myosuroides; conditions: for Blackgrass plant response rating: preemergence; for Plant response rating, Blackgrass: Preemergence
Procedure, shortened: as §1

wheat [11] = test: Test C postemergence; assay type: in vivo, Triticum aestivum; conditions: 10 days
Procedure, shortened: as §1

sedge, umbrella = test: Test D flooded paddy test; assay type: in vivo, Cyperus difformis; conditions: 250 g ai/ha, applied to paddy water, visual rating after 13 to 14 days, scale 0 to 100 (0 no effect, 100 complete control)
Procedure, shortened: as §2

ragweed [12] = test: Test C preemergence; assay type: in vivo, Ambrosia artemisiifolia; conditions: for Ragweed plant response rating: preemergence; for Plant response rating, Ragweed: Preemergence
Procedure, shortened: as §1

oat, wild [13] = test: Test C postemergence; assay type: in vivo, Avena fatua; conditions: 10 days
Procedure, shortened: as §1

wheat [14] = test: Test C preemergence; assay type: in vivo, Triticum aestivum; conditions: for Wheat plant response rating: preemergence; for Plant response rating, Wheat: Preemergence
Procedure, shortened: as §1

ryegrass, Italian [15] = test: Test C postemergence; assay type: in vivo, Lolium multiflorum; conditions: 10 days
Procedure, shortened: as §1

soybean [16] = test: Test C postemergence; assay type: in vivo, Glycine max; conditions: 10 days
Procedure, shortened: as §1

kochia [17] = test: Test C postemergence; assay type: in vivo, Bassia scoparia; conditions: 10 days
Procedure, shortened: as §1

pigweed, palmer [18] = test: Test C preemergence; assay type: in vivo, Amaranthus palmeri; conditions: for Pigweed, Palmer plant response rating: preemergence; for Plant response rating, Pigweed, Palmer: Preemergence
Procedure, shortened: as §1

pigweed, palmer [19] = test: Test C postemergence; assay type: in vivo, Amaranthus palmeri; conditions: 10 days
Procedure, shortened: as §1

corn [20] = test: Test C postemergence; assay type: in vivo, Zea mays; conditions: 10 days
Procedure, shortened: as §1

soybean [21] = test: Test C preemergence; assay type: in vivo, Glycine max; conditions: for Soybean plant response rating: preemergence; for Plant response rating, Soybean: Preemergence
Procedure, shortened: as §1

ducksalad = test: Test D flooded paddy test; assay type: in vivo, Heteranthera limosa; conditions: 250 g ai/ha, applied to paddy water, visual rating after 13 to 14 days, scale 0 to 100 (0 no effect, 100 complete control)
Procedure, shortened: as §2

kochia [22] = test: Test C preemergence; assay type: in vivo, Bassia scoparia; conditions: for Kochia plant response rating: preemergence; for Plant response rating, Kochia: Preemergence
Procedure, shortened: as §1

blackgrass [23] = test: Test C postemergence; assay type: in vivo, Alopecurus myosuroides; conditions: 10 days
Procedure, shortened: as §1

rice = test: Test D flooded paddy test; assay type: in vivo, Oryza sativa; conditions: 250 g ai/ha, applied to paddy water, visual rating after 13 to 14 days, scale 0 to 100 (0 no effect, 100 complete control)
Procedure, shortened: as §2

[24] = 500 g ai/ha, 0 to 100 scale (0 no effect, 100 complete control)
[25] = 125 g ai/ha, 0 to 100 scale, 0 no effect, 100 complete control
[26] = 500 g ai/ha, postemergence, 0 to 100 scale (0 no effect, 100 complete control)
[27] = Postemergence, 125 g ai/ha, 0 to 100 scale (0 no effect, 100 complete control)
[28] = 500 g ai/ha, visual rating after 10 days, 0 to 100 scale (0 no effect, 100 complete control)
[29] = Test C, 125 g ai/ha, 0 to 100 scale (0 no effect, 100 complete control)
[30] = 125 g ai/ha, postemergence, 0 to 100 scale, 0 no effect, 100 complete control
[31] = Postemergence, 500 g ai/ha, visual 0 to 100 scale (0 no effect, 100 complete control)

SMILES: Cc1cccc2c1OC(C(F)(F)F)CN2C(=O)c1cccc(-n2cnc(C(C)(C)C)n2)c1 (stereo not shown) [Compound 347]
- Foxtail, Green plant response rating (green foxtail [1]; [24]): 100
- Plant response rating, Foxtail, Green (green foxtail [1]; [25]): 90
- Plant response rating, Foxtail, Green (green foxtail [2]; [26]): 60
- Plant response rating, Foxtail, Green (green foxtail [2]; [27]): 20
- Oat, Wild plant response rating (oat, wild [3]; [24]): 70
- Plant response rating, Oat, Wild (oat, wild [3]; [25]): 60
- Plant response rating, Ragweed (ragweed [4]; [26]): 50
- Plant response rating, Ragweed (ragweed [4]; [27]): 20
- Plant response rating, Barnyardgrass (Flood) (barnyardgrass [5]): 0
- Barnyardgrass plant response rating (barnyardgrass [6]; [24]): 100
- Plant response rating, Barnyardgrass (barnyardgrass [6]; [25]): 20
- Plant response rating, Galium (galium; [26]): 80
- Plant response rating, Galium (galium; [27]): 90
- Plant response rating, Barnyardgrass (barnyardgrass [7]; [26]): 20
- Plant response rating, Barnyardgrass (barnyardgrass [7]; [27]): 10
- Corn plant response rating (corn [8]; [24]): 10
- Plant response rating, Corn (corn [8]; [25]): 0
- Ryegrass, Italian plant response rating (ryegrass, Italian [9]; [24]): 100
- Plant response rating, Ryegrass, Italian (ryegrass, Italian [9]; [25]): 100
- Plant response rating, Horseweed (horseweed; [26]): 20
- Plant response rating, Horseweed (horseweed; [27]): 0
- Blackgrass plant response rating (blackgrass [10]; [24]): 30
- Plant response rating, Blackgrass (blackgrass [10]; [25]): 10
- Plant response rating, Wheat (wheat [11]; [26]): 10
- Plant response rating, Wheat (wheat [11]; [27]): 10
- Plant response rating, Sedge, Umbrella (Flood) (sedge, umbrella): 0
- Ragweed plant response rating (ragweed [12]; [24]): 30
- Plant response rating, Ragweed (ragweed [12]; [25]): 0
- Plant response rating, Oat, Wild (oat, wild [13]; [26]): 10
- Plant response rating, Oat, Wild (oat, wild [13]; [27]): 10
- Wheat plant response rating (wheat [14]; [24]): 40
- Plant response rating, Wheat (wheat [14]; [25]): 20
- Plant response rating, Ryegrass, Italian (ryegrass, Italian [15]; [26]): 30
- Plant response rating, Ryegrass, Italian (ryegrass, Italian [15]; [27]): 20
- Plant response rating, Soybean (soybean [16]; [26]): 100
- Plant response rating, Soybean (soybean [16]; [27]): 100
- Plant response rating, Kochia (kochia [17]; [26]): 70
- Plant response rating, Kochia (kochia [17]; [27]): 50
- Pigweed, Palmer plant response rating (pigweed, palmer [18]; [24]): 70
- Plant response rating, Pigweed, Palmer (pigweed, palmer [18]; [25]): 80
- Plant response rating, Pigweed, Palmer (pigweed, palmer [19]; [26]): 80
- Plant response rating, Pigweed, Palmer (pigweed, palmer [19]; [27]): 80
- Plant response rating, Corn (corn [20]; [26]): 10
- Plant response rating, Corn (corn [20]; [27]): 10
- Soybean plant response rating (soybean [21]; [24]): 30
- Plant response rating, Soybean (soybean [21]; [25]): 30
- Plant response rating, Ducksalad (Flood) (ducksalad): 0
- Kochia plant response rating (kochia [22]; [24]): 60
- Plant response rating, Kochia (kochia [22]; [25]): 50
- Plant response rating, Blackgrass (blackgrass [23]; [26]): 60
- Plant response rating, Blackgrass (blackgrass [23]; [27]): 10
- Plant response rating, Rice (Flood) (rice): 0

SMILES: Cc1ccc(-n2cnc(C[S+](C)[O-])n2)cc1C(=O)N1C[C@H](C)Oc2c(Cl)cccc21 (stereo partly shown) [Compound 224]
- Plant response rating, Foxtail, Green (green foxtail [1]; [28]): 100
- Foxtail, Green plant response rating (green foxtail [1]; [29]): 100
- Plant response rating, Foxtail, Green (green foxtail [2]; [30]): 20
- Plant response rating, Foxtail, Green (green foxtail [2]; [31]): 70
- Plant response rating, Oat, Wild (oat, wild [3]; [28]): 90
- Oat, Wild plant response rating (oat, wild [3]; [29]): 30
- Plant response rating, Ragweed (ragweed [4]; [30]): 50
- Plant response rating, Ragweed (ragweed [4]; [31]): 70
- Plant response rating, Barnyardgrass (Flood) (barnyardgrass [5]): 10
- Plant response rating, Barnyardgrass (barnyardgrass [6]; [28]): 90
- Barnyardgrass plant response rating (barnyardgrass [6]; [29]): 40
- Plant response rating, Galium (galium; [30]): 100
- Plant response rating, Barnyardgrass (barnyardgrass [7]; [30]): 10
- Plant response rating, Barnyardgrass (barnyardgrass [7]; [31]): 50
- Plant response rating, Corn (corn [8]; [28]): 20
- Corn plant response rating (corn [8]; [29]): 0
- Plant response rating, Ryegrass, Italian (ryegrass, Italian [9]; [28]): 80
- Ryegrass, Italian plant response rating (ryegrass, Italian [9]; [29]): 70
- Plant response rating, Horseweed (horseweed; [30]): 30
- Plant response rating, Horseweed (horseweed; [31]): 50
- Plant response rating, Blackgrass (blackgrass [10]; [28]): 70
- Blackgrass plant response rating (blackgrass [10]; [29]): 20
- Plant response rating, Wheat (wheat [11]; [30]): 20
- Plant response rating, Wheat (wheat [11]; [31]): 60
- Plant response rating, Sedge, Umbrella (Flood) (sedge, umbrella): 98
- Plant response rating, Ragweed (ragweed [12]; [28]): 40
- Ragweed plant response rating (ragweed [12]; [29]): 0
- Plant response rating, Oat, Wild (oat, wild [13]; [30]): 50
- Plant response rating, Oat, Wild (oat, wild [13]; [31]): 70
- Plant response rating, Wheat (wheat [14]; [28]): 50
- Wheat plant response rating (wheat [14]; [29]): 0
- Plant response rating, Ryegrass, Italian (ryegrass, Italian [15]; [30]): 50
- Plant response rating, Ryegrass, Italian (ryegrass, Italian [15]; [31]): 100
- Plant response rating, Soybean (soybean [16]; [30]): 100
- Plant response rating, Soybean (soybean [16]; [31]): 100
- Plant response rating, Kochia (kochia [17]; [30]): 90
- Plant response rating, Kochia (kochia [17]; [31]): 90
- Plant response rating, Pigweed, Palmer (pigweed, palmer [18]; [28]): 100
- Pigweed, Palmer plant response rating (pigweed, palmer [18]; [29]): 90
- Plant response rating, Pigweed, Palmer (pigweed, palmer [19]; [30]): 90
- Plant response rating, Pigweed, Palmer (pigweed, palmer [19]; [31]): 90
- Plant response rating, Corn (corn [20]; [30]): 50
- Plant response rating, Corn (corn [20]; [31]): 90
- Plant response rating, Soybean (soybean [21]; [28]): 100
- Soybean plant response rating (soybean [21]; [29]): 60
- Plant response rating, Ducksalad (Flood) (ducksalad): 95
- Plant response rating, Kochia (kochia [22]; [28]): 70
- Kochia plant response rating (kochia [22]; [29]): 40
- Plant response rating, Blackgrass (blackgrass [23]; [30]): 30
- Plant response rating, Blackgrass (blackgrass [23]; [31]): 70
- Plant response rating, Rice (Flood) (rice): 15

Reference: US20260262643A1, “HERBICIDAL BENZOXAZINES” (FMC CORPORATION, priority 2022, published 2026)
